Experimental data published in patent US10816552B2 (The Governing Council of the University of Toronto, priority 2014, dated 2020).

How the values were obtained:
[1] = 1H NMR stability in d-DMSO under dry ambient atmosphere, 24 h; assay type: physicochemical; settings: for degradation over 24 hours (1H NMR): 24 hr incubation
Experimental: FIGS. 2A-C show the results of ^1H NMR stability experiments for exemplary compounds 1-11. (A) Compounds 1, 2 and 7. (B) Compounds 3, 4, 5 and 6. (C) Compounds 8, 9, 10 and 11. The organotellurium compounds (˜150 μM) were dissolved in d-DMSO with 1,3,5-trioxane, the secondary internal standard. The compounds were kept in clear glass 20 mL vials. The vials were kept in a moisture free environment for 24 hours with continuous supply of ambient atmosphere dried using a series of bubblers containing phosphoric acid, potassium hydroxide and calcium sulfate. Aliquots were analyzed by ^1H NMR and the organotellurium signals and the d5-H-DMSO peaks were integrated. The ratio between the DMSO and the organotellurium protons at time 0 were taken and normalized to generate a degradation plot. Experimental error was calculated by generating triplicate integration data from each individual preliminary NMR data. This error takes into consideration of integration bias and instrument fluctuations.
The relative chemical stability of the methyl telluroethers (1-4) were quantified using ^1H NMR by integration of the CH3—Te signals with respect to a residual DMSO-d5 internal standard. Samples were prepared in a solution of DMSO-d6 and placed under a slow continuous stream of dry ambient atmosphere in a clear glass desiccator. This setup allowed the compound's stability to be monitored without interference from atmospheric water (FIG. 2).

[2] = test system: Jurkat cells; test: Metabolic toxicity assay (WST-1) in Jurkat cells; assay type: cell-based; settings: for LD50 / LD50 (metabolic toxicity): Jurkat cells, 24 hour incubation, WST-1
Experimental: FIGS. 7A, B and C show a) and b) the cell proliferation rate of HCT116 cells as a function of time in the presence of various concentrations of the exemplary compound, Telox-2 (confluency analysis); and c) the metabolic toxicity of the exemplary compound, Telox-2, in Jurkat cells as measured by reduction of WST-1. Cells were incubated with Telox-2 for 24 hours prior to a 30 minute exposure to WST-1.
A 96 well clear fluorometer plate was loaded with 200 μL of Jurkat cells at a culture density of 1×10^6 cells per mL. To each well was added an appropriate amount of a stock solution of Telox/Telox2 in sterile DMSO to reach a desired concentration of Telox/Telox2 (1-1000 micromole). The concentration of DMSO was 1% in all wells. Cells were allowed to incubate for 24 h at 37° C. under normal atmosphere, after which 20 μL of a commercially available solution of WST-1 in PBS (Roche Diagnostics, product #05015944001) was added to each well (gentle pipetting evenly distributed the reagent throughout the well). Cells were allowed to incubate for a further 0.5 h at 37° C. under normal atmosphere, followed by subsequent measurement of the absorbance of each well at 450 nm using a TECAN Safire 2 plate reader. Data was background corrected vs. wells that contained cell growth media (without cells), an appropriate concentration of Telox2, a final concentration of DMSO=1%, and WST-1. Background correction wells were incubated in the same manner as described for cell-positive wells.
To investigate the organotellurium compounds of study as potential probe moieties for MC, the metabolic toxicity of the compounds was evaluated. Organotellurium compounds are often described as toxic, with aryl telluroethers showing cellular toxicity below 100 μM across a range of cell lines under different assay conditions.^9-11,38,39 The toxicity of compounds 8-11 was investigated in a commonly used Jurkat cell line after a 24 hour incubation using the metabolic probe WST-1 (Roche Diagnostics, Laval, Quebec) as per manufacturer's instructions. As compounds 8, 9 and 10 are expected to show degradation over the time frame of the toxicity assay, based on the NMR stability studies, these experiments show the relative toxicity of the compounds and their resulting degradation products (Table 2). […] The LD50 values of the exemplary organotellurium compounds of the present application provide promise for their use as activity based MC probes since the general MC experiment can be achieved at concentrations of ˜100 μM.^5

[3] = Solubility observations; assay type: physicochemical
[4] = NMR degradation in 50/50 d-DMSO/PBS buffer, air and ambient light; assay type: physicochemical; settings: air, ambient lighting, room temperature
Source text: The ^19F NMR of compound 10 and ^1H NMR of compound 11 were taken at shown time points. Compound 10 used trifluoroacetic acid as the internal standard and compound 11 used d5-DMSO.
To further validate these compounds as potential MC mass tags, the degradation was also studied in a buffered aqueous solution by dissolving the compounds in a 50/50 solution of d-DMSO/PBS buffer. The compounds were kept in an environment exposed to air and ambient lighting at room temperature. ^19F NMR was used to study compound 10 using a trifluoroacetic acid internal standard while ^1H NMR was used to study the degradation compound 11 using the d5-DMSO internal standard. […] However, under the same conditions the tellurophene 11 was stable.

[5] = test system: HCT116 cells; test: Mass cytometry hypoxia labelling (130Te signal); assay type: cell-based
Source text: FIGS. 4A-E show a schematic representation and density maps and plots. FIG. 4A is a schematic representation of Telox/Telox2 cell labelling for analysis via mass cytometry on a second-generation CyTOF instrument. FIG. 4b) is a density map of signal event length vs. ^130Te signal (arbitrary units). FIG. 4c) is a density plot output from the top-right gate in b) of ^193Ir signal (arbitrary units) vs. ^103Rh signal (arbitrary units). More than 93% of detected events fall in the square gate. FIG. 4d) is a density plot output from the bottom-left gate in b) of ^193Ir signal (arbitrary units) vs. ^103Rh signal (arbitrary units). More than 89% of detected events fall in the square gate. FIG. 4e) is a population histograms of cell ^130Te content (arbitrary units). Oxygen concentrations are listed as numerical percentages, P=Pimonidazole (100 μM). Blue and red histograms are Pimonidazole-negative controls. Orange and green histograms are Pimonidazole- positive competition experiments. Note: warmer colors in density plots indicate higher cell population density.
FIGS. 8A and B show a) the absolute ^130Te signal as a function of concentration as determined by mass cytometry analysis of HCT116 cells incubated with the exemplary compound, Telox-2, for 3 hours in either near-anoxic (˜0% O2), hypoxic (˜1% O2) or normoxic (21% O2) atmosphere; and b) the signal-to-noise (fold-change) representation of the data presented in part a.
FIGS. 9A-D show a) Absolute ^130Te signal as a function of time as determined by mass cytometry analysis of HCT116 cells incubated with 10 μM of the exemplary compound,Telox-2 (constant exposure), in either near-anoxic (˜0% O2), hypoxic (˜1% O2) or normoxic (21% O2) atmosphere; b) the signal-to-noise (fold-change) representation of the data presented in part a; and c) the absolute ^130Te signal as a function of time as determined by mass cytometry analysis of HCT116 cells incubated with 10 μM Telox-2 for 3 hours followed by replacement of Telox-2-containing media with fresh media in either near-anoxic (˜0% O2), hypoxic (˜1% O2) or normoxic (21% O2) atmosphere; and d) the signal-to-noise (fold-change) representation of the data presented in part c.
HCT116 (500,000) cells were seeded in 60 mm plastic petri dishes (Corning Inc., NY) and incubated for 24 h at 37° C., 21% O2/5% CO2. The cells were transferred to hypoxia chambers (H35/H85 hypoxia workstation, Don Whitley Scientific) maintained at 1%/0.2% or <0.02% O2 for 3 h. Hypoxia experiments (<0.02% O2) were performed by seeding the cells in 60 mm glass plates (Corning Inc., NY).
HCT 116 cells (see sections i and ii) were incubated in media containing Telox or Telox2 (100 μM, added as a neat solution in sterile DMSO; final [DMSO]=0.1%) for 3 hours under atmosphere containing an appropriate concentration of O2. Following incubation, the media was removed, cells were washed with sterile PBS, and then separated from the incubation plate via trypsinization (37° C., 10 min) and gentle scraping. The cell suspension was pelleted and resuspended in PBS containing β-ME (1.0 mL, 100 mM). Cells were pelleted, resuspended in PBS (900 μL, no β-ME), and fixed with formaldehyde (100 μL, 37% solution) for 25 minutes. Following fixation, cells were pelleted, resuspended in PBS containing β-ME (1.0 mL, 100 mM), and pelleted once again. Cells were then resuspended in PBS ([…], no β-ME) and incubated with either the Ir-containing nucleic acid intercalator (hypoxic cells) or the Rh containing nucleic acid intercalator (normoxic cells) (10 μL, 100 μM solution in sterile PBS) for 20 minutes. Cells were then pelleted and resuspended in PBS (1.0 mL, no β-ME) twice. Cell pellets were then resuspended in PBS containing ^151/153EU beads (1/10 dilution of CyTOF® calibration beads, DVS Sciences, 1.0-2.5 mL depending on pellet size). The two cells samples were then combined (250 μL of each) and 250 μL of the resultant sample was injected onto a second-generation CyTOF® instrument for MC analysis. […]

[6] = Stability of the Telox telluroether (summary statement); assay type: physicochemical

Which “degradation over 24 hours (1H NMR)” value [1] does the source give for `C[Te]CCCO` [Compound 2, 3-methyltellanyl-1-propanol] here?
The value was “approximately 75%”.

With `COC(=O)CC[Te]C` [Compound 3, methyl 3-methyltellanyl-propionate] as the compound, how does the “degradation over 24 hours (1H NMR)” value [1] read?
Its value is ~85%.

With `COC(=O)CCC[Te]C` [Compound 4, methyl 4-methyltellanyl-butanoate] as the compound, how does the “degradation over 24 hours (1H NMR)” value [1] read?
The value was “approximately 15%”.

For `COC(=O)CCC[Te]C(F)(F)F` [Compound 5, methyl 4-((trifluoromethyl)tellanyl)butanoate], which “degradation over 24 hr incubation (1H NMR), in words” value (“degradation over 24 hr incubation” below) [1] is on record?
Its value is “no degradation was observed”.

Which “degradation over 24 hr incubation” value [1] does the source give for `O=C(O)CCc1ccc[te]1` [Compound 6] here?
Its value is “degraded insignificantly”.

Which “degradation over 24 hr incubation” value [1] does the source give for `OCCc1ccc[te]1` [Compound 7, 2-(tellurophen-2-yl)ethan-ol] here?
The value was “degraded insignificantly”.

Which results are given for `C[Te]CCCOC(=O)NCc1ccccc1` [Compound 8]?
LD50 [2]: 610 ± 290 µM; LD50 (metabolic toxicity) [2]: 610 µM; solubility, in words [3]: lack of solubility

With `C[Te]CCCC(=O)NCc1ccccc1` [Compound 9, N-benzyl-4-(methyltellanyl)butanamide] as the compound, how does the LD50 [2] read?
Its LD50 is 180 ± 60 µM.

For `O=C(CCC[Te]C(F)(F)F)NCc1ccccc1` [Compound 10, N-benzyl-4-((trifluoromethyl)tellanyl)butamide], which “degradation after 24 hours in d-DMSO/PBS” value ([4]; 19F NMR) is on record?
The value was 60%.

What about the LD50 [2] of the same compound?
Its LD50 is 130 ± 20 µM.

What about the “degradation over 24 hr incubation” value [1] of the same compound?
The value was “stable”.

For `O=C(CCc1ccc[te]1)NCc1ccccc1` [Compound 11, N-benzyl-3-(tellurophen-2-yl)propanamide], which “stability in d-DMSO/PBS, in words” value ([4]; 1H NMR, 24 hours) is on record?
The value was “stable”.

And the LD50 [2]?
The LD50 was 280 ± 30 µM.

And the “LD50 (metabolic toxicity)” value [2]?
The value was 280 µM.

And the “degradation over 24 hr incubation” value [1]?
The value was “stable”.

With `C[Te]CCCOC(=O)NCCNC(=O)Cn1ccnc1[N+](=O)[O-]` [Telox] as the compound, how does the “detected events in the square gate, top-right (130Te) gate, 193Ir vs 103Rh” value ([5]; FIG. 4c) read?
Its value is “More than 93%”.

What about the “detected events in the square gate, bottom-left (130Te) gate, 193Ir vs 103Rh” value ([5]; FIG. 4d) of the same compound?
The value was “More than 89%”.

What about the “stability of telluroether functionality, in words” value [6] of the same compound?
The value was “moderate stability”.

What about the “metabolic LD50, in words” value ([2]; Telox, summary statement) of the same compound?
Its value is “close to the required assay concentration”.
